In patent publication EP4050002A1, “ANTI-PROLIFERATIVE AGENTS” (First Health Pharmaceuticals B.V., priority 2021, dated 2022):

Assays:
Plasma stability = assay type: in vitro ADME, CD1 mice; settings: Mouse plasma
Procedure: Plasma previously separated from whole blood in EDTA-treated tubes and frozen; blood samples obtained from healthy volunteers, Sprague Dawley rats and CD1 mice, was thawed at room temperature and centrifuged at 1400x RCF 4°C, for 15 minutes. Approximately 90% of the clear supernatant fraction was transferred to a separate tube and was used for the assay.
Stocks (1 mM and 25 µM) of test compound were prepared in acetonitrile:water (50:50 v/v). Plasma samples were heat inactivated at 54°C. 3 µl of 25 µM test compound were added to 72 µl of heat inactivated plasma. A 50 µL aliquot of the mixture was taken and crashed with 200 µl of acetonitrile containing Telmisartan 100 ng/ml as internal standard and was further processed along with other time points: 10, 30 60 and 120 minutes.
Final working stock of 1 µM was prepared by diluting 12 µl of 25 µM stock in 288 µl of plasma. The obtained solution (300 µl) of plasma containing the test compound was incubated for […] at 37°C in shaker water bath with gentle shaking. 50 µl aliquot of sample at 10, 30, 60 and 120 min was precipitated immediately with 200 µl of acetonitrile containing internal standard and centrifuged at 4000x RCF, 4°C for 20 minutes. 150 µl of supernatant was diluted with 150 µl of water and analyzed by LC-MS/MS.
The % remaining of the test substance was calculated as: (Peak Area ratio at time (min))/(Peak Area Ratio at 0 min) ^∗ 100
The API400 MS and Agilent 1260 Infinity LC were used. Mobile Phase included 10mM Ammonium acetate with 0.1% formic acid in MilliQ water, and Methanol. The column was Phenomenex, KINETIC EVO C18 100A 5u 50^∗4.6 mm, 10 µl injection volume.

[1] = test system: Non-small cell lung cancer (cell line A549); assay: Subcutaneous xenograft mice model; assay type: in vivo, nude FOXN1nu/nu mice; settings: 45 mg/Kg I.P. every Monday, Wednesday and Friday for 5 weeks
Procedure: (§1) Human cancer cell lines were inoculated subcutaneously in nude FOXN1^nu/nu mice (Envigo spa) in both flanks.
(§2) The number of cells inoculated varied between different cell lines: • A549 and A549 Red-FLuc: 5 x 10^6 in medium:matrigel (1:1 v/v) • MDAMB231: 2.8 x 10^6 in medium:matrigel (1:2 v/v)
(§3) When tumors reach the appropriate volume for each cell line, the compounds were administered I.P. every 48 hours, 3 times a week every Monday, Wednesday and Friday for 5 weeks, at a dose selected from the PK study, as follows: • vehicle: 10% DMSO, 5% TWEEN 80 and WFI (85%) • treatment group dose: 45 mg/kg • control group: vehicle only • dose concentration: 12 mg/ml in 10% DMSO, 5% TWEEN 80 and WFI (85%) • volume: 5 ml/kg
(§4) Tumor volume was evaluated twice a week with caliper and calculated with the standard formula (Length ^∗ Height ^∗ Height)/2. Mice were weighed twice a week. Tumor growth is calculated with respect to the first day of treatment (day 0) as ratio between the volume at each day of measurement and day 0.

[2] = test system: Non-small cell lung cancer engineered with a luciferase reporter (cell line A549 Red-FLuc); assay: Subcutaneous xenograft mice model; assay type: in vivo, nude FOXN1nu/nu mice; settings: 45 mg/Kg I.P. every Monday, Wednesday and Friday for 5 weeks
Procedure: as §1, §2, §3, §4

[3] = test system: Triple negative breast cancer (cell line MDA-MB-231); assay: Subcutaneous xenograft mice model; assay type: in vivo, nude FOXN1nu/nu mice; settings: MDA-MB-231 xenograft, 45 mg/Kg I.P. every Monday, Wednesday and Friday for 5 weeks
Procedure: as §1, §2, §3, §4

DDX3X = DDX3X (Homo sapiens, UniProt O00571); assay: nanoDSF enzymatic binding (melting temperature shift); design: human DDX3X (residues 132-607, UniProtID: 000571, produced by Proteros GmbH); purchased Proteros GmbH; settings: Compound 100 µM, DDX3 4 µM
Chain of DDX3X (O00571 132-607): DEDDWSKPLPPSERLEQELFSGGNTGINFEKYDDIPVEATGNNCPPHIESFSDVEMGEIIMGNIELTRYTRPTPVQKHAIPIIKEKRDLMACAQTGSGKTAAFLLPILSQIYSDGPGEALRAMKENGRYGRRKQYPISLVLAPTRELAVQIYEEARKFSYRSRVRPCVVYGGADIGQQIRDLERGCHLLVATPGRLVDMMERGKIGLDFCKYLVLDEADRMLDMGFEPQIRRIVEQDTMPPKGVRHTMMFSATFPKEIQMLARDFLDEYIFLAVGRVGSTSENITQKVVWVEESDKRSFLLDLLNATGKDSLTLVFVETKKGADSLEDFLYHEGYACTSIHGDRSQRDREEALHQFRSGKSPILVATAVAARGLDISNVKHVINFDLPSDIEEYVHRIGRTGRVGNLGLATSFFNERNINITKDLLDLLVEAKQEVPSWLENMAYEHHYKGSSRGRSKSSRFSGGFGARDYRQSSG
From the text: The binding of compounds to DDX3X have been assessed by nanoDSF analysis (NanoTemper Technologies GmbH, Flößergasse 4, 81369 München, Germany). NanoDSF technology is a Differential Scanning Fluorimetry method which measures the protein stability with high resolution without the need of a dye. In particular it measures the changes of the intrinsic tryptophan fluorescence at 330 and 350 nm and it is used to determine the melting temperature of a protein. In the folded state the residues of tryptophan are buried in the hydrophobic core. During denaturation the residues are more exposed and the fluorescence changes in both intensity and wavelength. In a typical experiment, the protein is mixed with the ligand in the reaction buffer and transferred into a capillary. The fluorescence is monitored over temperature gradient between 20 and 95°C with an increment of 2.5°C per minute. The interaction of the ligand to the folded state of the protein shifts the protein melting temperature (Tm) at higher or lower temperature.
Experimental conditions: the experiments were conducted with the device Prometheus NT.48 (NanoTemper Technologies GmbH), the enzyme used was the human DDX3X (residues 132-607, UniProtID: 000571, produced by Proteros GmbH). The assessed compounds were dissolved in pure DMSO adequate to obtain a concentration of compound of 100µM and DMSO 1% (v:v) in final solution. Reaction buffer for DDX3X was 20 mM HEPES, pH 7.5, 0.5 mM TCEP, 500 mM NaCl, 10% (v:v) Glycerin, with a final reaction volume of 10 µL and a final DMSO concentration of 1% (v:v). The reaction was performed in "High sensitivity capillaries" in the range of 20-95°C with a heating rate of 2.5°C/min, with an incubation time of 60 minutes.
• 1) Add appropriate volume of target enzyme in reaction buffer • 2) Add compound(s) in 100% DMSO (1% final DMSO conc.) • 3) Fill the capillary • 4) Measure fluorescence
The assay development was performed with DDX3X protein alone showing a Tm at 54.6 °C.
Binding of compound 5 was assessed with the NanoDSF technique, evaluating the association of the aforementioned compound with APO DDX3X and in presence of a competitor for the ATP binding site, Adenylyl imidodiphosphate (AMPPNP) to assess competition of compound 5 for the DDX3X ATP binding site. Table 6. Final protein and compound concentrations in the various assay setup:
All the measures were performed in triplicate and the average (Mean Tm) and standard deviation (SD) were calculated with the following equations: [formula] and SD = sqrt((∑((Tm−Mean Tm))^2)/(n−1)) [formula]
A change of 5xSD from the 1% DMSO control mean is considered to be a significant Tm change. Test of DDX3X with 1% DMSO was performed to obtain the reference melting temperature of the protein alone. Compounds are considered as binders if the Tm shifts by >= 5 times the standard deviation of the control (protein in the absence of compound). Table 7. DDX3X melting temperatures (Tm) at various experimental conditions

**Q.** Which “% Remaining ± SD” value (Plasma stability; 0 minutes) does the source give for `CCCCc1cn(-c2ccc(-c3nnc(-c4ccccc4C(F)(F)F)o3)cc2)nn1` [Compound 5] here?
**A.** 100.0 ± 1.8%

**Q.** What about the “% Remaining ± SD” value (Plasma stability; 10 minutes) of the same compound?
**A.** 117.2 ± 8.6%

**Q.** And the “% Remaining ± SD” value (Plasma stability; 30 minutes)?
**A.** 111.1 ± 0.3%

**Q.** And the “% Remaining ± SD” value (Plasma stability; 60 minutes)?
**A.** 108.2 ± 4.8%

**Q.** What about the “% Remaining ± SD” value (Plasma stability; 120 minutes) of the same compound?
**A.** 123.2 ± 26.5%

**Q.** What about the tumor growth [1] of the same compound?
**A.** counteract tumor growth

**Q.** What about the tumor growth [2] of the same compound?
**A.** counteract tumor growth

**Q.** What about the tumor growth [3] of the same compound?
**A.** counteract tumor growth

**Q.** And the “Comment (Tm shift)” value (DDX3X; AMPPNP 100 µM)?
**A.** significant Tm shift to higher Tm, compound interference

**Q.** What about the “Mean Tm” value (DDX3X; AMPPNP 100 µM) of the same compound?
**A.** 56.8 °C

**Q.** What about the “Comment (Tm shift)” value (DDX3X; no AMPPNP) of the same compound?
**A.** significant Tm shift to higher Tm, compound interference

**Q.** What about the “Mean Tm” value (DDX3X; no AMPPNP) of the same compound?
**A.** 56.9 °C
